From patent US20110166066A1, “CATESTATIN (CST) AND ITS VARIANTS FOR TREATMENT OF CARDIOVASCULAR AND METABOLIC DISORDERS” (priority 2008, published 2011)
Read-outs that look alike come from different tables or passages of the source. No end group written: not given here.

Tests used:
CgA null mice = conditions: pre-treatment; cited from earlier work
[1] = system: Langendorff perfused rat heart; assay: Langendorff perfused rat heart, basal conditions: concentration-response of catestatin peptides
Source text: Animals-Male Wistar rats (Morini, Bologna, Italy S.P.A.) weighing 180-250 g were housed (three per cage) in a ventilated cage rack system under standard conditions. Animals had food and water access ad libitum. The investigation conforms to the Guide for the Care and Use of Laboratory Animals, according to NIH Publication No. 85-23, revised 1996. Isolated heart preparation-Rats were anesthetized with ethyl carbamate (2 g/Kg rat, i.p.), the hearts rapidly excised and then transferred in ice-cold buffered Krebs-Henseleit solution (KHs). As previously described (23), the aorta was immediately cannulated with a glass cannula and connected to Langendorff apparatus to start perfusion at constant flow-rate (12 ml/min). Briefly, the apex of the left ventricle (LV) was pierced to avoid fluid accumulation. A water-filled latex balloon, connected to a pressure transducer ([…], Inc. USA), was inserted through mitral valve into the LV allowing isovolumic contractions and continuous mechanical parameters recording. Another pressure transducer located just above the aorta recorded coronary pressure (CP). […] Hemodynamic parameters were assessed using a PowerLab data acquisition system and analysed using Chart software (both purchased by ADInstruments, Basile, Italy). […] Curve fitting was accomplished in the program Kaleidagraph (Synergy Software, Reading, Pa.). Peptide EC50 and IC50 values were interpolated as the concentration that achieved 50% stimulation and inhibition, respectively. For analysis of phosphorylated proteins, levels were quantified using Bio-Rad QuantifyOne and volumes of phosphorylated proteins were divided by the levels of non-phosphorylated proteins to calculate fold activation. Stimulation of protein activity was expressed as fold increase over vehicle-treated control. The means and S.E.M. were calculated for each treatment. Multiple comparisons were made using either one-way ANOVA followed by Bonferroni's post-hoc test or two-way ANOVA. Statistical significance was concluded at p<0.05. Statistics were computed with the program InStat (GraphPad Software, Inc., San Diego, Calif.).

[2] = system: Wild-type and CgA-KO mice; assay: Heart rate variability (EKG) in sedated mice; type: in vivo
Experimental: Animals. Six Wild-type and seven CgA-KO mice were used in this study (see example 1 for the details).
Mice were sedated by an intraperitoneal injection of a 1 μl solution per gm body weight, containing Ketamine (100 mg/ml)+Xylazine (20 mg/ml) and Acepromazine (10 mg/ml). Mice were gently strapped onto the surgical table in a fixed supine position with silk tape. Body temperature was continuously monitored on an analog thermometer, model 44TA (YSI, Ohio) using a rectal probe, and maintained between 36.5 and 38.5° C. throughout the experiment using a controlled heating box. The analog output signal fed into the chart recorder (AD Instruments, Colorado) and suitably amplified. The adequacy of sedation was regularly verified by absence of vibrissae twitching and withdrawal reflex to a noxious toe-pinch and was supplemented intraperitoneally as needed. Animals breathed ambient air spontaneously throughout the experimental run. Investigational agent, a nicotinic cholinergic receptor antagonist (8), CST was dissolved in distilled water and injected intraperitoneally at a volume of 70 μl from a 1 mM working solution.
EKG electrodes were attached to all four limbs (incl. reference electrode) via 30G stainless steel hypodermic needles (Popper & Sons, New York) so as to record standard bipolar Einthoven derivation (lead I, II and III) EKG signals. The EKG signals were bandpass-filtered between 0.1 and 3 kHz with a notch filter set at 60 Hz, and sampled at 2 kHz. The voltage output fed into a data acquisition system (PowerLab-8, AD Instruments) for eventual off-line measurements and analysis by chart and scope (Labchart 6) software. Heart rate and rhythm were also monitored continuously on an oscilloscope (Tektronix 5113, Oregon) throughout the experiment.
EKG traces were edited using the Chart® software package. High frequency noise from the EKG was removed using a 45 Hz low-pass filter to enable detection of the R-waves, whenever appropriate. A threshold electrical potential value was set for each trace and the post-threshold maximum was taken as the R-wave. Each trace was visually inspected for any undetected R-waves and these were manually inserted, while incorrectly detected R-waves or non-normal beats such as extrasystoles were deleted. Time and frequency domain analysis of HRV was performed using fast Fourier-transformation with a Hanning window. Spectral power was calculated on 50% overlapped blocks on sequences of 1024 points (beats). Time-domain parameters recorded or calculated included: mean R-R interval (in ms) [i.e., NN interval, i.e., normal-to-normal intervals]; standard deviation of all normal R-R interval (SDNN, in ms), reflecting total autonomic variability; square root mean of squared differences between adjacent normal R-R intervals (RMSSD), an index for short-term variations in inter-beat intervals, primarily of parasympathetic nature; and percentage of normal consecutive inter-beat intervals differing by >7 ms (NN7%), reflecting cardiac parasympathetic tone, were calculated directly from the sequence of interval times. NN7 is a murine-adjusted value based on PNN50 determined for humans (32). The mean HR was calculated as the mean sequence of reciprocals of the interval times. For non-linear measurements on the return map of R-R intervals (Lorenz plot), the images acquired by the chart software were imported into Image J (National Institutes of Health, Bethesda) for evaluating point dispersion of S1 and S2 (see below). The width and length of the dispersion of data in Lorenz plots reflects the level of short- and long-term beat-to-beat variability, respectively. The different frequency domain measures of HRV were computed using cut-off frequencies for power in the very low frequency (VLF), low-frequency range (LF) and high-frequency range (HF) based on human studies multiplied by a factor of ten for HR adjustment (the approximate ratio between murine and human HR) (33). […]

**Q.** With “SSMKLSFRARAYGFRGPGPQL [WT-CST, catestatin]” as the sequence, how does the “High blood pressure in CgA null mice” value (CgA null mice) read?
**A.** lowers the high blood pressure in CgA null mice to normal levels

**Q.** What about the EC50 [1] of the same sequence?
**A.** ~12.5 nM

**Q.** And the “Time the LVP effect remained stable” value [1]?
**A.** 15 min

**Q.** And the “Time to maximum effect on LVP after administration” value [1]?
**A.** 5 min

**Q.** And the IC50 ([1]; 11 to 200 nM, measured at 10 min, read-out: +(LVdP/dt)max inhibition IC50)?
**A.** ~72 nM

**Q.** And the EC50 ([1]; 11 to 200 nM, measured at 10 min, read-out: T/−t increment EC50)?
**A.** 60 nM

**Q.** And the IC50 ([1]; 11 to 200 nM, measured at 10 min, read-out: −(LVdP/dt)max decrement IC50)?
**A.** 74 nM

**Q.** And the “Concentration of maximum CP response” value ([1]; basal)?
**A.** 200 nM

**Q.** What about the “Concentration of maximum HR increase” value ([1]; basal) of the same sequence?
**A.** 165 nM

**Q.** And the “Effect on CP (coronary pressure)” value ([1]; basal)?
**A.** dose-dependent increment

**Q.** And the Activity rank order ([1]; basal conditions, Table 2)?
**A.** Activity: WT-CST > P370L-CST > G364S-CST

**Q.** And the Inotropism ([1]; basal conditions, Table 2)?
**A.** Negative

**Q.** And the Lusitropism ([1]; basal conditions, Table 2)?
**A.** Negative

**Q.** And the “Effect on HR” value ([1]; basal, WT-Cts significant at 33 nM)?
**A.** significantly increased

**Q.** What about the “Desensitization on repetitive exposure” value ([1]; single concentration 33 nM, repeated) of the same sequence?
**A.** absence of desensitization

**Q.** What about the “Increased baseline heart rate” value ([2]; CgA KO mice, parenteral CST) of the same sequence?
**A.** rescued

**Q.** What about the “HRV VLF power” value ([2]; KO mice) of the same sequence?
**A.** 2.899±1.05 ln ms^2

**Q.** What about the “Time-domain parameters of HRV (SDNN, NN7%, RMSSD)” value ([2]; KO mice) of the same sequence?
**A.** reversed

**Q.** And the “HRV VLF power” value ([2]; WT mice)?
**A.** 2.468±0.69 ln ms^2

**Q.** And the “Short-term and long-term variability of HRV (Lorenz analysis)” value ([2]; mouse, in vivo)?
**A.** marked improvements

**Q.** And the Spectral peak positions ([2]; mouse, in vivo)?
**A.** not visibly altered
